Measurements as given in patent US11053204B2, “Pyrimidinyloxy benzene derivatives as herbicides” (FMC Corporation, priority 2015, dated 2021).

Assays:
Type in all cases: in vivo
[1] = test system: oat, wild (wild oat Avena fatua); assay: Test C preemergence, plant response rating
corn (Zea mays) = assay: Test C preemergence, plant response rating; settings: Preemergence
Summary of the method: (§1)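 Greenhouse plants rated visually against untreated controls 13–15 d after treatment, scale 0 = no effect to 100 = complete control. Postemergence sprays went onto potted plants 2–18 cm tall (1–4 leaves); preemergence sprays onto soil freshly sown in loam–sand or silt loam, chemicals formulated in non-phytotoxic solvent with surfactant.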

soybean (Glycine max) = assay: Test C preemergence, plant response rating; settings: Preemergence
Summary of the method: as §1

[2] = test system: ragweed (common ragweed, Ambrosia elatior); assay: Test C preemergence, plant response rating; settings: Preemergence
Summary of the method: as §1

[3] = test system: velvetleaf (Abutilon theophrasti); assay: Test C preemergence, plant response rating; settings: Preemergence
Summary of the method: as §1

[4] = test system: waterhemp (common waterhemp, Amaranthus rudis); assay: Test C preemergence, plant response rating; settings: Preemergence
Summary of the method: as §1

[5] = test system: foxtail, giant (giant foxtail, Setaria faberii); assay: Test C preemergence, plant response rating; settings: Preemergence
Summary of the method: as §1

[6] = test system: wheat (winter wheat, Triticum aestivum); assay: Test C preemergence, plant response rating; settings: Preemergence
Summary of the method: as §1

[7] = test system: oilseed rape (Brassica napus); assay: Test C preemergence, plant response rating; settings: Preemergence
Summary of the method: as §1

[8] = test system: nutsedge, yellow (yellow nutsedge, Cyperus esculentus); assay: Test C preemergence, plant response rating; settings: Preemergence
Summary of the method: as §1

[9] = test system: lambsquarters (Chenopodium album); assay: Test C preemergence, plant response rating; settings: Preemergence
Summary of the method: as §1

[10] = test system: blackgrass (Alopecurus myosuroides); assay: Test C preemergence, plant response rating; settings: Preemergence
Summary of the method: as §1

[11] = test system: morningglory (Ipomoea coccinea); assay: Test C preemergence, plant response rating; settings: Preemergence
Summary of the method: as §1

[12] = test system: ryegrass, Italian (Italian ryegrass, Lolium multiflorum); assay: Test C preemergence, plant response rating; settings: Preemergence
Summary of the method: as §1

[13] = test system: crabgrass, large (large crabgrass, Digitaria sanguinalis); assay: Test C preemergence, plant response rating; settings: Preemergence
Summary of the method: as §1

[14] = test system: ducksalad (Heteranthera limosa); assay: Test B flooded paddy test, plant response rating; settings: 250 g ai/ha; Flood; scale of 0 to 100 where 0 is no effect and 100 is complete control; 13 to 15 days
Summary of the method: (§2)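 Flooded 3 cm over soil; compound into paddy water; depth kept constant. Greenhouse 13–15 d.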

rice (Oryza sativa) = assay: Test B flooded paddy test, plant response rating; settings: 250 g ai/ha; Flood; scale of 0 to 100 where 0 is no effect and 100 is complete control; 13 to 15 days
Summary of the method: as §2

[15] = test system: sedge, umbrella (small-flower umbrella sedge, Cyperus difformis); assay: Test B flooded paddy test, plant response rating; settings: 250 g ai/ha; Flood; scale of 0 to 100 where 0 is no effect and 100 is complete control; 13 to 15 days
Summary of the method: as §2

[16] = test system: surinam grass (Brachiaria decumbens); assay: Test C preemergence, plant response rating
[17] = test system: wild poinsettia (Euphorbia heterophylla); assay: Test C preemergence, plant response rating

N#CC(CCCC(F)(F)F)c1ccccc1Oc1ncc(Cl)cn1 (centres unmarked) [Compound 144]
Plant response rating, Oat, Wild ([1]; 31 g ai/ha, scale 0 to 100): 5 | Plant response rating, Oat, Wild ([1]; 62 g ai/ha, scale 0 to 100): 10 | Plant response rating, Oat, Wild ([1]; 125 g ai/ha, scale of 0 to 100): 10 | Plant response rating, Corn (corn (Zea mays); 125 g ai/ha, scale of 0 to 100): 30 | Plant response rating, Corn (corn (Zea mays); 16 g ai/ha, scale 0 to 100): 0 | Plant response rating, Corn (corn (Zea mays); 31 g ai/ha, scale 0 to 100): 0 | Plant response rating, Corn (corn (Zea mays); 62 g ai/ha, scale 0 to 100): 5 | Plant response rating, Soybean (soybean (Glycine max); 125 g ai/ha, scale of 0 to 100): 60 | Plant response rating, Soybean (soybean (Glycine max); 31 g ai/ha, scale 0 to 100): 0 | Plant response rating, Soybean (soybean (Glycine max); 62 g ai/ha, scale 0 to 100): 30 | Plant response rating, Ragweed ([2]; 125 g ai/ha, scale of 0 to 100): 10 | Plant response rating, Ragweed ([2]; 31 g ai/ha, scale 0 to 100): 0 | Plant response rating, Ragweed ([2]; 62 g ai/ha, scale 0 to 100): 0 | Plant response rating, Velvetleaf ([3]; 125 g ai/ha, scale of 0 to 100): 45 | Plant response rating, Velvetleaf ([3]; 31 g ai/ha, scale 0 to 100): 0 | Plant response rating, Velvetleaf ([3]; 62 g ai/ha, scale 0 to 100): 15 | Plant response rating, Waterhemp ([4]; 125 g ai/ha, scale of 0 to 100): 100 | Plant response rating, Waterhemp ([4]; 31 g ai/ha, scale 0 to 100): 98 | Plant response rating, Waterhemp ([4]; 62 g ai/ha, scale 0 to 100): 98 | Plant response rating, Foxtail, Giant ([5]; 125 g ai/ha, scale of 0 to 100): 100 | Plant response rating, Foxtail, Giant ([5]; 31 g ai/ha, scale 0 to 100): 85 | Plant response rating, Foxtail, Giant ([5]; 62 g ai/ha, scale 0 to 100): 100 | Plant response rating, Wheat ([6]; 125 g ai/ha, scale of 0 to 100): 5 | Plant response rating, Wheat ([6]; 62 g ai/ha, scale 0 to 100): 0 | Plant response rating, Oilseed Rape ([7]; 125 g ai/ha, scale of 0 to 100): 90 | Plant response rating, Oilseed Rape ([7]; 31 g ai/ha, scale 0 to 100): 0 | Plant response rating, Oilseed Rape ([7]; 62 g ai/ha, scale 0 to 100): 5 | Plant response rating, Nutsedge, Yellow ([8]; 125 g ai/ha, scale of 0 to 100): 70 | Plant response rating, Nutsedge, Yellow ([8]; 31 g ai/ha, scale 0 to 100): 20 | Plant response rating, Nutsedge, Yellow ([8]; 62 g ai/ha, scale 0 to 100): 60 | Plant response rating, Lambsquarters ([9]; 125 g ai/ha, scale of 0 to 100): 75 | Plant response rating, Lambsquarters ([9]; 31 g ai/ha, scale 0 to 100): 40 | Plant response rating, Lambsquarters ([9]; 62 g ai/ha, scale 0 to 100): 65 | Plant response rating, Blackgrass ([10]; 125 g ai/ha, scale of 0 to 100): 30 | Plant response rating, Blackgrass ([10]; 16 g ai/ha, scale 0 to 100): 5 | Plant response rating, Blackgrass ([10]; 31 g ai/ha, scale 0 to 100): 10 | Plant response rating, Blackgrass ([10]; 62 g ai/ha, scale 0 to 100): 40 | Plant response rating, Morningglory ([11]; 125 g ai/ha, scale of 0 to 100): 20 | Plant response rating, Morningglory ([11]; 31 g ai/ha, scale 0 to 100): 0 | Plant response rating, Morningglory ([11]; 62 g ai/ha, scale 0 to 100): 10 | Plant response rating, Ryegrass, Italian ([12]; 125 g ai/ha, scale of 0 to 100): 60 | Plant response rating, Ryegrass, Italian ([12]; 31 g ai/ha, scale 0 to 100): 0 | Plant response rating, Ryegrass, Italian ([12]; 62 g ai/ha, scale 0 to 100): 0 | Plant response rating, Crabgrass, Large ([13]; 125 g ai/ha, scale of 0 to 100): 100 | Plant response rating, Crabgrass, Large ([13]; 16 g ai/ha, scale 0 to 100): 85 | Plant response rating, Crabgrass, Large ([13]; 31 g ai/ha, scale 0 to 100): 98 | Plant response rating, Crabgrass, Large ([13]; 62 g ai/ha, scale 0 to 100): 100 | Plant response rating, Ducksalad [14]: 100 | Plant response rating, Rice (rice (Oryza sativa)): 35 | Plant response rating, Sedge, Umbrella [15]: 100 | Plant response rating, Surinam Grass ([16]; 31 g ai/ha, scale 0 to 100): 5 | Plant response rating, Surinam Grass ([16]; 62 g ai/ha, scale 0 to 100): 70 | Plant response rating, Surinam Grass ([16]; 125 g ai/ha, scale of 0 to 100): 60 | Plant response rating, Poinsettia, Wild ([17]; 31 g ai/ha, scale 0 to 100): 5 | Plant response rating, Poinsettia, Wild ([17]; 62 g ai/ha, scale 0 to 100): 40 | Plant response rating, Poinsettia, Wild ([17]; 125 g ai/ha, scale of 0 to 100): 80
